From ChEMBL document CHEMBL1201862, “PubChem BioAssay data set” (2004)
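Briefly, cells in 96-well plates were exposed to five compound concentrations for 48 h, and endpoints were estimated by linear interpolation. Abbreviation: GI50, concentration required for 50% inhibition of growth.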 Activity calls are given as the source filed them. No stated cut-off is given here; in the data, active = GI50 up to about 1.1 µM and inactive = higher.

Experiments:
Assay in all cases: NCI-60 cell line screen, 48 h
OVCAR-4 = tested on: OVCAR-4
OVCAR-3 = tested on: OVCAR-3
Hs-578T = tested on: Hs-578T
NCI-H460 = tested on: NCI-H460
SW-620 = tested on: SW-620
T47D = tested on: T47D
NCI-H23 = tested on: NCI-H23
786-0 = tested on: 786-0
M14 = tested on: M14
SR = tested on: SR
UACC-62 = tested on: UACC-62
HL-60 = tested on: HL-60
RPMI-8226 = tested on: RPMI-8226
MDA-MB-435 = tested on: MDA-MB-435
MCF7 = tested on: MCF7
MDA-MB-231 = tested on: MDA-MB-231
Malme-3M = tested on: Malme-3M
HOP-62 = tested on: HOP-62
HCT-116 = tested on: HCT-116
SK-OV-3 = tested on: SK-OV-3
A549 = tested on: A549
SK-MEL-5 = tested on: SK-MEL-5
SN12C = tested on: SN12C
CAKI-1 = tested on: CAKI-1
MDA-N = tested on: MDA-N
EKVX = tested on: EKVX
RXF 393 = tested on: RXF 393
UO-31 = tested on: UO-31
SF-539 = tested on: SF-539
HOP-92 = tested on: HOP-92
NCI/ADR-RES = tested on: NCI/ADR-RES
LOX IMVI = tested on: LOX IMVI
SF-295 = tested on: SF-295
HT-29 = tested on: HT-29
DU-145 = tested on: DU-145
COLO 205 = tested on: COLO 205
MOLT-4 = tested on: MOLT-4
U-251 = tested on: U-251
BT-549 = tested on: BT-549
UACC-257 = tested on: UACC-257
OVCAR-8 = tested on: OVCAR-8
TK-10 = tested on: TK-10
NCI-H522 = tested on: NCI-H522
KM12 = tested on: KM12
PC-3 = tested on: PC-3
SK-MEL-28 = tested on: SK-MEL-28
HCC 2998 = tested on: HCC 2998
HCT-15 = tested on: HCT-15
K562 = tested on: K562
OVCAR-5 = tested on: OVCAR-5
ACHN = tested on: ACHN
SK-MEL-2 = tested on: SK-MEL-2
CCRF-CEM = tested on: CCRF-CEM
SNB-75 = tested on: SNB-75
IGROV-1 = tested on: IGROV-1
SNB-19 = tested on: SNB-19
SF-268 = tested on: SF-268
NCI-H226 = tested on: NCI-H226
A498 = tested on: A498

## CC1=C(/C=C/C(C)=C/C=C/C(C)=C/C(=O)OCC2OC(n3cc(F)c(=O)[nH]c3=O)CC2OC(=O)/C=C(C)/C=C/C=C(C)/C=C/C2=C(C)CCCC2(C)C)C(C)(C)CCC1 (stereo not given)
OVCAR-4
  GI50: > 32.1 µM (inactive)
OVCAR-3
  GI50: 9.75 µM (inactive)
Hs-578T
  GI50: 9.25 µM (inactive)
NCI-H460
  GI50: 0.0659 µM (active)
SW-620
  GI50: 12.1 µM (inactive)
T47D
  GI50: 15.7 µM (inactive)
NCI-H23
  GI50: 10.4 µM (inactive)
786-0
  GI50: 1.15 µM (inactive)
M14
  GI50: 3.81 µM (inactive)
SR
  GI50: 0.794 µM (active)
UACC-62
  GI50: 0.83 µM (active)
HL-60
  GI50: 1.14 µM (inactive)
RPMI-8226
  GI50: 0.796 µM (active)
MDA-MB-435
  GI50: 13.3 µM (inactive)
MCF7
  GI50: 0.225 µM (active)
MDA-MB-231
  GI50: 30.1 µM (inactive)
Malme-3M
  GI50: 7.43 µM (inactive)
HOP-62
  GI50: 0.306 µM (active)
HCT-116
  GI50: 2.82 µM (inactive)
SK-OV-3
  GI50: 30.5 µM (inactive)
A549
  GI50: 0.402 µM (active)
SK-MEL-5
  GI50: 3.08 µM (inactive)
SN12C
  GI50: 7.43 µM (inactive)
CAKI-1
  GI50: 0.959 µM (active)
MDA-N
  GI50: 10.4 µM (inactive)
EKVX
  GI50: > 54.3 µM (inactive)
RXF 393
  GI50: 22.3 µM (inactive)
UO-31
  GI50: 0.94 µM (active)
SF-539
  GI50: 0.314 µM (active)
HOP-92
  GI50: 1.25 µM (inactive)
NCI/ADR-RES
  GI50: 5.21 µM (inactive)
LOX IMVI
  GI50: 3.48 µM (inactive)
SF-295
  GI50: 0.301 µM (active)
HT-29
  GI50: 11.2 µM (inactive)
DU-145
  GI50: 1.27 µM (inactive)
COLO 205
  GI50: 18.7 µM (inactive)
MOLT-4
  GI50: 1.07 µM (active)
U-251
  GI50: 4.15 µM (inactive)
BT-549
  GI50: 29.6 µM (inactive)
UACC-257
  GI50: 9.23 µM (inactive)
OVCAR-8
  GI50: 1.71 µM (inactive)
TK-10
  GI50: 21.6 µM (inactive)
NCI-H522
  GI50: 8.2 µM (inactive)
KM12
  GI50: 23.9 µM (inactive)
PC-3
  GI50: 8.95 µM (inactive)
SK-MEL-28
  GI50: 20.9 µM (inactive)
HCC 2998
  GI50: 0.132 µM (active)
HCT-15
  GI50: 13.2 µM
K562
  GI50: 4.66 µM (inactive)
OVCAR-5
  GI50: > 45.3 µM (inactive)
ACHN
  GI50: 0.418 µM (active)
SK-MEL-2
  GI50: 58.6 µM (inactive)
CCRF-CEM
  GI50: 0.684 µM (active)
SNB-75
  GI50: 10.4 µM (inactive)
IGROV-1
  GI50: 6.32 µM (inactive)
SNB-19
  GI50: 3.1 µM (inactive)
SF-268
  GI50: 0.618 µM (active)
NCI-H226
  GI50: 37.8 µM (inactive)

## COC(=O)c1ccccc1CC1Cc2ccc3c(c2C1=O)CCCC3 (stereo not given)
OVCAR-4
  GI50: 23.3 µM (inactive)
OVCAR-3
  GI50: 51.4 µM (inactive)
Hs-578T
  GI50: 60.7 µM (inactive)
NCI-H460
  GI50: 68.5 µM (inactive)
SW-620
  GI50: 32 µM (inactive)
T47D
  GI50: 13.8 µM (inactive)
NCI-H23
  GI50: 35.3 µM (inactive)
786-0
  GI50: 35.2 µM (inactive)
M14
  GI50: 49 µM (inactive)
SR
  GI50: 14 µM (inactive)
UACC-62
  GI50: 57.1 µM (inactive)
HL-60
  GI50: 12.9 µM (inactive)
RPMI-8226
  GI50: 19.2 µM (inactive)
MDA-MB-435
  GI50: 34.6 µM (inactive)
MCF7
  GI50: 37.4 µM (inactive)
MDA-MB-231
  GI50: 29.7 µM (inactive)
Malme-3M
  GI50: 28.1 µM (inactive)
HOP-62
  GI50: > 77.4 µM (inactive)
HCT-116
  GI50: 29.2 µM (inactive)
SK-OV-3
  GI50: > 95.9 µM (inactive)
A498
  GI50: 52.8 µM (inactive)
A549
  GI50: 34.3 µM (inactive)
SK-MEL-5
  GI50: 15.5 µM (inactive)
SN12C
  GI50: 37.2 µM (inactive)
CAKI-1
  GI50: 24 µM (inactive)
MDA-N
  GI50: 35.8 µM (inactive)
EKVX
  GI50: 29.9 µM (inactive)
UO-31
  GI50: 52.8 µM (inactive)
SF-539
  GI50: 62.1 µM (inactive)
NCI/ADR-RES
  GI50: 23.6 µM (inactive)
LOX IMVI
  GI50: 28.8 µM (inactive)
SF-295
  GI50: 32 µM (inactive)
HT-29
  GI50: 20.4 µM (inactive)
DU-145
  GI50: 48.4 µM (inactive)
COLO 205
  GI50: 34 µM (inactive)
MOLT-4
  GI50: 10.4 µM (inactive)
U-251
  GI50: 50.6 µM (inactive)
BT-549
  GI50: 49.1 µM (inactive)
UACC-257
  GI50: 29.5 µM (inactive)
OVCAR-8
  GI50: 43.3 µM (inactive)
TK-10
  GI50: 51.4 µM (inactive)
NCI-H522
  GI50: 22.6 µM (inactive)
KM12
  GI50: 46.2 µM (inactive)
PC-3
  GI50: 23.7 µM (inactive)
SK-MEL-28
  GI50: 64.9 µM (inactive)
HCC 2998
  GI50: 44.3 µM (inactive)
HCT-15
  GI50: 25.4 µM
K562
  GI50: 17 µM (inactive)
OVCAR-5
  GI50: > 100 µM (inactive)
ACHN
  GI50: 48.1 µM (inactive)
SK-MEL-2
  GI50: 24.7 µM (inactive)
CCRF-CEM
  GI50: 23.8 µM (inactive)
SNB-75
  GI50: 40.4 µM (inactive)
IGROV-1
  GI50: > 100 µM (inactive)
SNB-19
  GI50: 87.7 µM (inactive)
SF-268
  GI50: 75.5 µM (inactive)
NCI-H226
  GI50: 60.1 µM (inactive)
